Reference: patent US12098145B2 (Libra Therapeutics, Inc., priority 2022, dated 2024)

Assays:
[1] = molecular target: T1, TRPML1 (Homo sapiens, UniProt Q9GZU1); experiment: Cellular TRPML1 assay (FLIPR, GCaMP6f calcium read-out); type: cell-based; conditions: HEKT-REx/GCaMP6f/TRPML1 cells, FLIPR TETRA, kinetic response over 300 seconds; read-out: TRPML1 FLIPR pEC50 (converted)
T1 construct: expressed in transfected cells; host or cells: HEK T-REx cells stably expressing GCaMP6f and TRPML1
Summary of the method: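 Read-out is GCaMP6f fluorescence over 300 s after compound addition in Ca2+-free Tyrode's buffer, final DMSO 0.5%, on FLIPR Tetra. Cells are HEK T-REx stably co-expressing the indicator and TRPML1, plated 24 h earlier in Optimem + 0.5% FBS and pre-incubated ~10 min at room temperature.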

[2] = system: TFEB; experiment: TFEB translocation assay (TFEB reporter in U2OS cells, imaging); type: cell-based; conditions: Homo sapiens; U2OS cell line with TFEB reporter, 2 hours incubation, nucleus to cytoplasm ratio, normalized to Torin-1; read-out: TFEB Translocation pEC50 (converted)
Summary of the method: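 Activity expresses the mean nuclear-to-cytosolic reporter ratio scaled between DMSO (0%) and Torin-1 (100%) controls. Read-out came from high-content imaging of fixed, Hoechst-counterstained U2OS cells carrying mRFP-tagged TFEB after 2 h compound exposure at 37 °C in Opti-MEM with 0.015% Tween 80 and 0.5% DMSO.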

T1 sequence (Q9GZU1 whole entry): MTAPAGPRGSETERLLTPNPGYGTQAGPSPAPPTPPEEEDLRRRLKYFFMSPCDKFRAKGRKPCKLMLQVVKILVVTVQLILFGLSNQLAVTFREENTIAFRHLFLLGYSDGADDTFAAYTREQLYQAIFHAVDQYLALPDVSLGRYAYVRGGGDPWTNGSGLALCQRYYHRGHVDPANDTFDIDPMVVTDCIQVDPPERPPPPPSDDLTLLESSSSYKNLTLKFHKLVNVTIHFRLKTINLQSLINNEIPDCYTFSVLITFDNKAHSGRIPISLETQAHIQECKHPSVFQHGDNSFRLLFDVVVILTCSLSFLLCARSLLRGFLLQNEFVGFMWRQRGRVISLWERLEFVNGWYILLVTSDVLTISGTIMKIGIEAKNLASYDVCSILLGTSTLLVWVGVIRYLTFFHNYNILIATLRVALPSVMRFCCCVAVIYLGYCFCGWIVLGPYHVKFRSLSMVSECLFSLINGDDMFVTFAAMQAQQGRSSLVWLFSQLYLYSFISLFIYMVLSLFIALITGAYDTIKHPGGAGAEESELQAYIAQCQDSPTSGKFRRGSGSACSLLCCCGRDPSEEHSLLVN

Row | Structure (SMILES) | EC50 [1] [nM] | EC50 [2] [nM]
1 | O=C(Nc1ccc(OC2CC3CC(C3)C2)c(F)c1)c1nc(N2CCCC2)oc1CC(F)(F)F (centres unmarked) [Example 143, N-(4-(bicyclo[3.1.1]heptan-3-yloxy)-3-fluorophenyl)-2-(pyrrolidin-1-yl)-5-(2,2,2-trifluoroethyl)oxazole-4-carboxamide] | 10 to 1000 | 10 to 1000
2 | O=C(Nc1cc(F)c(O[C@@H]2C[C@@H]3C[C@@H]3C2)c(F)c1)c1nc(N2CCC3COCC32)oc1CC(F)(F)F (stereo partly drawn) [Example 144, N-(4-(cis-bicyclo[3.1.0]hexan-3-yloxy)-3,5-difluorophenyl)-2-(hexahydro-1H-furo[3,4-b]pyrrol-1-yl)-5-(2,2,2-trifluoroethyl)oxazole-4-carboxamide] | 10 to 1000 | 10 to 1000
3 | CCC1(CC)CN(c2nc(C(=O)Nc3cc(F)c(OC4CC5CC(C5)C4)c(F)c3)c(CC(F)(F)F)o2)C1 (centres unmarked) [Example 145, N-(4-(bicyclo[3.1.1]heptan-3-yloxy)-3,5-difluorophenyl)-2-(3,3-diethylazetidin-1-yl)-5-(2,2,2-trifluoroethyl)oxazole-4-carboxamide] | 10 to 1000 | 10 to 1000
4 | CCC1(OC)CN(c2nc(C(=O)Nc3cc(F)c(OC4CC5CC(C5)C4)c(F)c3)c(CC(F)(F)F)o2)C1 (centres unmarked) [Example 148, N-(4-(bicyclo[3.1.1]heptan-3-yloxy)-3,5-difluorophenyl)-2-(3-ethyl-3-methoxyazetidin-1-yl)-5-(2,2,2-trifluoroethyl)oxazole-4-carboxamide] | 10 to 1000 | 10 to 1000
5 | CCC1(OC)CN(c2nc(C(=O)Nc3ccc(OC4CC5CC(C5)C4)c(F)c3)c(CC(F)(F)F)o2)C1 (centres unmarked) [Example 149, N-(4-(bicyclo[3.1.1]heptan-3-yloxy)-3-fluorophenyl)-2-(3-ethyl-3-methoxyazetidin-1-yl)-5-(2,2,2-trifluoroethyl)oxazole-4-carboxamide] | 10 to 1000 | 10 to 1000
6 | CCC1(OC)CN(c2nc(C(=O)Nc3cc(F)c(OC4CC5CCC4C5)c(F)c3)c(CC(F)(F)F)o2)C1 (centres unmarked) [Example 150, N-(4-(bicyclo[2.2.1]heptan-2-yloxy)-3,5-difluorophenyl)-2-(3-ethyl-3-methoxyazetidin-1-yl)-5-(2,2,2-trifluoroethyl)oxazole-4-carboxamide] | 10 to 1000 | 10 to 1000
7 | O=C(Nc1ccc(O[C@@H]2CC3C[C@@H]3C2)c(F)c1)c1nc(N2CCC3CC32)oc1CC(F)(F)F (stereo partly drawn) [Example 154, 2-(2-azabicyclo[3.1.0]hexan-2-yl)-N-(4-(cis-bicyclo[3.1.0]hexan-3-yloxy)-3-fluorophenyl)-5-(2,2,2-trifluoroethyl)oxazole-4-carboxamide] | 10 to 1000 | 10 to 1000
8 | CCC1(CC)CN(c2nc(C(=O)Nc3cc(F)c(OC4CCC5CC54)c(F)c3)c(CC(F)(F)F)o2)C1 (centres unmarked) [Example 155, N-(4-(bicyclo[3.1.0]hexan-2-yloxy)-3,5-difluorophenyl)-2-(3,3-diethylazetidin-1-yl)-5-(2,2,2-trifluoroethyl)oxazole-4-carboxamide] | 10 to 1000 | 10 to 1000
9 | O=C(Nc1ccc(O[C@@H]2C[C@@H]3C[C@@H]3C2)c(F)c1)c1nc(N2CC3CC3C2)oc1CC(F)(F)F (stereo partly drawn) [Example 156, 2-(3-azabicyclo[3.1.0]hexan-3-yl)-N-(4-(cis-bicyclo[3.1.0]hexan-3-yloxy)-3-fluorophenyl)-5-(2,2,2-trifluoroethyl)oxazole-4-carboxamide] | 10 to 1000 | 10 to 1000
10 | O=C(Nc1cc(F)c(O[C@@H]2C[C@@H]3C[C@@H]3C2)c(F)c1)c1nc(N2CCC3OCCC32)oc1CC(F)(F)F (stereo partly drawn) [Example 157, N-(4-(cis-bicyclo[3.1.0]hexan-3-yloxy)-3,5-difluorophenyl)-2-(hexahydro-4H-furo[3,2-b]pyrrol-4-yl)-5-(2,2,2-trifluoroethyl)oxazole-4-carboxamide] | 10 to 1000 | 10 to 1000
11 | CCC1(OC)CN(c2nc(C(=O)Nc3ccc(O[C@@H]4C[C@@H]5C[C@@H]5C4)c(F)c3)c(CC(F)(F)F)o2)C1 [Example 159, N-(4-(cis-bicyclo[3.1.0]hexan-3-yloxy)-3-fluorophenyl)-2-(3-ethyl-3-methoxyazetidin-1-yl)-5-(2,2,2-trifluoroethyl)oxazole-4-carboxamide] | 10 to 1000 | 10 to 1000
12 | O=C(Nc1ccc(O[C@@H]2C[C@@H]3C[C@@H]3C2)c(F)c1)c1nc(N2CC3CCC3C2)oc1CC(F)(F)F (stereo partly drawn) [Example 161, N-(4-(cis-bicyclo[3.1.0]hexan-3-yloxy)-3-fluorophenyl)-2-(3-azabicyclo[3.2.0]heptan-3-yl)-5-(2,2,2-trifluoroethyl)oxazole-4-carboxamide] | 10 to 1000 | 10 to 1000
13 | O=C(Nc1ccc(O[C@@H]2C[C@@H]3C[C@@H]3C2)c(F)c1)c1nc(N2CCC3CCCC32)oc1CC(F)(F)F (stereo partly drawn) [Example 162, N-(4-(cis-bicyclo[3.1.0]hexan-3-yloxy)-3-fluorophenyl)-2-(hexahydrocyclopenta[b]pyrrol-1(2H)-yl)-5-(2,2,2-trifluoroethyl)oxazole-4-carboxamide] | 10 to 1000 | 10 to 1000
14 | O=C(Nc1cc(F)c(O[C@@H]2C[C@@H]3C[C@@H]3C2)c(F)c1)c1nc(N2CCC3CCCCC32)oc1CC(F)(F)F (stereo partly drawn) [Example 163, N-(4-(cis-bicyclo[3.1.0]hexan-3-yloxy)-3,5-difluorophenyl)-2-(octahydro-1H-indol-1-yl)-5-(2,2,2-trifluoroethyl)oxazole-4-carboxamide] | 10 to 1000 | 10 to 1000
15 | COC1(C)CN(c2nc(C(=O)Nc3cc(C)c(O[C@@H]4C[C@@H]5C[C@@H]5C4)c(F)c3)c(CC(F)(F)F)o2)C1 [Example 164, N-(4-(cis-bicyclo[3.1.0]hexan-3-yloxy)-3-fluoro-5-methylphenyl)-2-(3-methoxy-3-methylazetidin-1-yl)-5-(2,2,2-trifluoroethyl)oxazole-4-carboxamide] | 10 to 1000 | 10 to 1000
16 | CCC1(COC)CN(c2nc(C(=O)Nc3cc(F)c(O[C@@H]4C[C@@H]5C[C@@H]5C4)c(F)c3)c(CC(F)(F)F)o2)C1 [Example 165, N-(4-(cis-bicyclo[3.1.0]hexan-3-yloxy)-3,5-difluorophenyl)-2-(3-ethyl-3-(methoxymethyl)azetidin-1-yl)-5-(2,2,2-trifluoroethyl)oxazole-4-carboxamide] | 10 to 1000 | 10 to 1000
17 | O=C(Nc1cc(F)c(O[C@@H]2C[C@@H]3C[C@@H]3C2)c(F)c1)c1nc(N2CCC23CCC3)oc1CC(F)(F)F [Example 170, N-(4-(cis-bicyclo[3.1.0]hexan-3-yloxy)-3,5-difluorophenyl)-2-(1-azaspiro[3.3]heptan-1-yl)-5-(2,2,2-trifluoroethyl)oxazole-4-carboxamide] | 10 to 1000 | 10 to 1000
18 | O=C(Nc1ccc(O[C@@H]2C[C@@H]3C[C@@H]3C2)c(F)c1)c1nc(N2CC3(CCOCC3)C2)oc1CC(F)(F)F [Example 171, N-(4-(cis-bicyclo[3.1.0]hexan-3-yloxy)-3-fluorophenyl)-2-(7-oxa-2-azaspiro[3.5]nonan-2-yl)-5-(2,2,2-trifluoroethyl)oxazole-4-carboxamide] | 10 to 1000 | 10 to 1000
19 | CC1(C)CCCN1c1nc(C(=O)Nc2cc(F)c(O[C@@H]3C[C@@H]4C[C@@H]4C3)c(F)c2)c(CC(F)(F)F)o1 [Example 172, N-(4-(cis-bicyclo[3.1.0]hexan-3-yloxy)-3,5-difluorophenyl)-2-(2,2-dimethylpyrrolidin-1-yl)-5-(2,2,2-trifluoroethyl)oxazole-4-carboxamide] | 10 to 1000 | 10 to 1000
